Experimental data as given in US12712052B2, “Method and system to identify natural products from mass spectrometry and genomics data” (priority 2021, dated 2026).
In brackets after ≈: the same amount, converted by molar mass. Where two headings read alike, the source gives them in different places. Starred links: 1 amine or outer side, 2 acyl side, 3 side chain; linkers in the order of their positions; H or OH if unused. Positions of bridges follow the written chain, without caps; N, C: chain ends. Non-standard residues stand in square brackets, D forms with d. Residues, ends and D or L forms follow the SMILES beside them. *: point of attachment. hTyr(3S-OH,4S-OH,3'-OSO3H) = N[C@H](C(=O)O)[C@H](O)[C@@H](O)c1ccc(O)c(OS(=O)(=O)O)c1; pTerphenylCO(4''-OnC5H11) = CCCCCOc1ccc(-c2ccc(-c3ccc(C(=O)*)cc3)cc2)cc1; Orn(4R-OH,5R-OH) = O=C([C@H](C[C@@H](O)[C@@H](O)N[*:3])N[*:1])[*:2]; hTyr(3S-OH,4S-OH) = N[C@H](C(=O)O)[C@H](O)[C@@H](O)c1ccc(O)cc1; Pro(3S-OH,4S-Me) = C[C@H]1CN[C@H](C(=O)O)[C@H]1O; X1 = CCCCCOc1ccc(-c2cc(-c3ccc(C(=O)*)cc3)no2)cc1; Gln(3R-OH) = NC(=O)C[C@@H](O)[C@H](N)C(=O)O; Hyp = O=C(O)[C@@H]1C[C@@H](O)CN1

How the values were obtained:
[1] = test system: C. albicans ATCC 90028; test: MIC against C. albicans ATCC 90028; assay type: cell-based, Candida albicans; conditions: for MIC: Candida albicans
Protocol: (§1) Direct bioactivity screening experiments of CHM-752 are performed against Candida pathogens (Table 13).

[2] = test system: C. auris CDC #0381; test: MIC against C. auris CDC #0381; assay type: cell-based, Candida auris; conditions: for MIC: Candidozyma auris, read-out: minimum inhibitory concentration (MIC)
Protocol: as §1

[3] = test system: C. auris CDC #0383; test: MIC against C. auris CDC #0383; assay type: cell-based, Candida auris; conditions: for MIC: Candidozyma auris, read-out: minimum inhibitory concentration (MIC)
Protocol: as §1

[4] = test system: C. auris CDC #0384; test: MIC against C. auris CDC #0384; assay type: cell-based, Candida auris; conditions: for MIC: Candidozyma auris, read-out: minimum inhibitory concentration (MIC)
Protocol: as §1

[5] = test system: C. auris CDC #0385; test: MIC against C. auris CDC #0385; assay type: cell-based, Candida auris; conditions: for MIC: Candidozyma auris, read-out: minimum inhibitory concentration (MIC)
Protocol: as §1

[6] = test system: C. auris CDC #0387; test: MIC against C. auris CDC #0387; assay type: cell-based, Candida auris; conditions: for MIC: Candidozyma auris, read-out: minimum inhibitory concentration (MIC)
Protocol: as §1

[7] = test system: C. auris CDC #0389; test: MIC against C. auris CDC #0389; assay type: cell-based, Candida auris; conditions: for MIC: Candidozyma auris, read-out: minimum inhibitory concentration (MIC)
Protocol: as §1

[8] = test system: C. auris CDC #0390; test: MIC against C. auris CDC #0390; assay type: cell-based, Candida auris; conditions: for MIC: Candidozyma auris, read-out: minimum inhibitory concentration (MIC)
Protocol: as §1

[9] = test system: C. glabrata CDC #0315; test: MIC against C. glabrata CDC #0315; assay type: cell-based; conditions: for MIC: Nakaseomyces glabratus, read-out: minimum inhibitory concentration (MIC)
Protocol: as §1

[10] = test system: C. glabrata CDC #0318; test: MIC against C. glabrata CDC #0318; assay type: cell-based; conditions: for MIC: Nakaseomyces glabratus, read-out: minimum inhibitory concentration (MIC)
Protocol: as §1

[11] = test system: C. glabrata CDC #0321; test: MIC against C. glabrata CDC #0321; assay type: cell-based; conditions: for MIC: Nakaseomyces glabratus, read-out: minimum inhibitory concentration (MIC)
Protocol: as §1

[12] = test system: C. glabrata CDC #0325; test: MIC against C. glabrata CDC #0325; assay type: cell-based; conditions: for MIC: Nakaseomyces glabratus, read-out: minimum inhibitory concentration (MIC)
Protocol: as §1

[13] = test system: C. albicans MYA-574; test: MIC against C. albicans MYA-574; assay type: cell-based, Candida albicans; conditions: for MIC: Candida albicans
Protocol: as §1

[14] = test system: C. glabrata ATCC 36583; test: MIC against C. glabrata ATCC 36583; assay type: cell-based; conditions: for MIC: Nakaseomyces glabratus, ATCC36583, read-out: minimum inhibitory concentration (MIC)
Protocol: as §1

[15] = ATCC90028, read-out: minimum inhibitory concentration (MIC)
[16] = ATCC90028, C. albicans ATCC 90028, read-out: minimum inhibitory concentration (MIC)
[17] = MYA574, C. albicans MYA-574, read-out: minimum inhibitory concentration (MIC)

## CCCCCOc1ccc(-c2ccc(-c3ccc(C(=O)N[C@H]4C[C@@H](O)[C@@H](O)NC(=O)[C@@H]5[C@@H](O)[C@@H](C)CN5C(=O)[C@H]([C@@H](C)O)NC(=O)[C@H]([C@H](O)[C@@H](O)c5ccc(O)cc5)NC(=O)[C@@H]5C[C@@H](O)CN5C(=O)[C@H]([C@@H](C)O)NC4=O)cc3)cc2)cc1 [ANI, Anidulafungin] ({pTerphenylCO(4''-OnC5H11)}-[Orn(4R-OH,5R-OH)]T[Hyp][hTyr(3S-OH,4S-OH)]T[Pro(3S-OH,4S-Me)]; lactam 1-C)
[1]; [15]
  MIC: 0.01 µg/mL (≈ 0.00877 µM)
[2]
  MIC: 0.25 µg/mL (≈ 0.219 µM)
[3]
  MIC: 1 µg/mL (≈ 0.877 µM)
[4]
  MIC: 2 µg/mL (≈ 1.75 µM)
[5]
  MIC: 1 µg/mL (≈ 0.877 µM)
[6]
  MIC: 0.5 µg/mL (≈ 0.438 µM)
[7]
  MIC: 1 µg/mL (≈ 0.877 µM)
[8]
  MIC: 1 µg/mL (≈ 0.877 µM)
[9]
  MIC: 2 µg/mL (≈ 1.75 µM)
[10]
  MIC: 4 µg/mL (≈ 3.51 µM)
[11]
  MIC: 2 µg/mL (≈ 1.75 µM)
[12]
  MIC: 4 µg/mL (≈ 3.51 µM)

## OC(Cn1cncn1)(Cn1cncn1)c1ccc(F)cc1F [FLC, Fluconazole]
[1]; [16]
  MIC: 0.25 µg/mL (≈ 0.816 µM)
[13]; [17]
  MIC: 64 µg/mL (≈ 209 µM)
[2]; C. auris CDC #0381
  MIC: 4 µg/mL (≈ 13.1 µM)
[3]; C. auris CDC #0383
  MIC: 128 µg/mL (≈ 418 µM)
[4]; C. auris CDC #0384
  MIC: 128 µg/mL (≈ 418 µM)
[5]; C. auris CDC #0385
  MIC: > 256 µg/mL
[6]; C. auris CDC #0387
  MIC: 8 µg/mL (≈ 26.1 µM)
[7]; C. auris CDC #0389
  MIC: 256 µg/mL (≈ 836 µM)
[8]; C. auris CDC #0390
  MIC: > 256 µg/mL
[14]
  MIC: 8 µg/mL (≈ 26.1 µM)
[9]; C. glabrata CDC #0315
  MIC: 4 µg/mL (≈ 13.1 µM)
[10]; C. glabrata CDC #0318
  MIC: 32 µg/mL (≈ 104 µM)
[11]; C. glabrata CDC #0321
  MIC: 64 µg/mL (≈ 209 µM)
[12]; C. glabrata CDC #0325
  MIC: 128 µg/mL (≈ 418 µM)

## CCCCCOc1ccc(-c2cc(-c3ccc(C(=O)N[C@H]4C[C@@H](O)[C@@H](O)NC(=O)[C@@H]5[C@@H](O)[C@@H](C)CN5C(=O)[C@H]([C@H](O)CC(N)=O)NC(=O)[C@H]([C@H](O)[C@@H](O)c5ccc(O)c(OS(=O)(=O)O)c5)NC(=O)[C@@H]5C[C@@H](O)CN5C(=O)[C@H]([C@@H](C)O)NC4=O)cc3)no2)cc1 [MF, Micafungin] (X1-[Orn(4R-OH,5R-OH)]T[Hyp][hTyr(3S-OH,4S-OH,3'-OSO3H)][Gln(3R-OH)][Pro(3S-OH,4S-Me)]; lactam 1-C)
[1]; [15]
  MIC: 0.02 µg/mL (≈ 0.0157 µM)
[13]; MYA574, read-out: minimum inhibitory concentration (MIC)
  MIC: 0.06 µg/mL (≈ 0.0472 µM)
[2]
  MIC: 0.13 µg/mL (≈ 0.102 µM)
[3]
  MIC: 1 µg/mL (≈ 0.787 µM)
[4]
  MIC: 2 µg/mL (≈ 1.57 µM)
[5]
  MIC: 0.5 µg/mL (≈ 0.394 µM)
[6]
  MIC: 0.5 µg/mL (≈ 0.394 µM)
[7]
  MIC: 0.25 µg/mL (≈ 0.197 µM)
[8]
  MIC: 0.25 µg/mL (≈ 0.197 µM)
[9]
  MIC: 4 µg/mL (≈ 3.15 µM)
[10]
  MIC: 4 µg/mL (≈ 3.15 µM)
[11]
  MIC: 1 µg/mL (≈ 0.787 µM)
[12]
  MIC: 4 µg/mL (≈ 3.15 µM)

## C[C@@H](c1ncncc1F)[C@](O)(Cn1cncn1)c1ccc(F)cc1F [VRC, Voriconazole]
[1]; [16]
  MIC: 0.01 µg/mL (≈ 0.0286 µM)
[13]; [17]
  MIC: 0.25 µg/mL (≈ 0.716 µM)
[2]; C. auris CDC #0381
  MIC: 0.03 µg/mL (≈ 0.0859 µM)
[3]; C. auris CDC #0383
  MIC: 4 µg/mL (≈ 11.5 µM)
[4]; C. auris CDC #0384
  MIC: 1 µg/mL (≈ 2.86 µM)
[5]; C. auris CDC #0385
  MIC: 16 µg/mL (≈ 45.8 µM)
[6]; C. auris CDC #0387
  MIC: 0.06 µg/mL (≈ 0.172 µM)
[7]; C. auris CDC #0389
  MIC: 0.4 µg/mL (≈ 1.15 µM)
[8]; C. auris CDC #0390
  MIC: 8 µg/mL (≈ 22.9 µM)
[14]
  MIC: 0.5 µg/mL (≈ 1.43 µM)
[9]; C. glabrata CDC #0315
  MIC: 0.25 µg/mL (≈ 0.716 µM)
[10]; C. glabrata CDC #0318
  MIC: 1 µg/mL (≈ 2.86 µM)
[11]; C. glabrata CDC #0321
  MIC: 2 µg/mL (≈ 5.73 µM)
[12]; C. glabrata CDC #0325
  MIC: 16 µg/mL (≈ 45.8 µM)

## CC[C@H](C)C[C@H](C)CCCCCCCCC(=O)N[C@H]1C[C@@H](O)[C@@H](NCCN)NC(=O)[C@@H]2[C@@H](O)CCN2C(=O)[C@H]([C@H](O)CCN)NC(=O)[C@H]([C@H](O)[C@@H](O)c2ccc(O)cc2)NC(=O)[C@@H]2C[C@@H](O)CN2C(=O)[C@H]([C@@H](C)O)NC1=O [CAS, Caspofungin]
[1]; [16]
  MIC: 0.5 µg/mL (≈ 0.457 µM)
[13]; [17]
  MIC: 0.5 µg/mL (≈ 0.457 µM)
[2]; C. auris CDC #0381
  MIC: 0.13 µg/mL (≈ 0.119 µM)
[3]; C. auris CDC #0383
  MIC: 0.25 µg/mL (≈ 0.229 µM)
[4]; C. auris CDC #0384
  MIC: 16 µg/mL (≈ 14.6 µM)
[5]; C. auris CDC #0385
  MIC: 0.5 µg/mL (≈ 0.457 µM)
[6]; C. auris CDC #0387
  MIC: 0.25 µg/mL (≈ 0.229 µM)
[7]; C. auris CDC #0389
  MIC: 0.5 µg/mL (≈ 0.457 µM)
[8]; C. auris CDC #0390
  MIC: 0.5 µg/mL (≈ 0.457 µM)
[14]
  MIC: 0.5 µg/mL (≈ 0.457 µM)
[9]; C. glabrata CDC #0315
  MIC: 16 µg/mL (≈ 14.6 µM)
[10]; C. glabrata CDC #0318
  MIC: 16 µg/mL (≈ 14.6 µM)
[11]; C. glabrata CDC #0321
  MIC: 4 µg/mL (≈ 3.66 µM)
[12]; C. glabrata CDC #0325
  MIC: > 16 µg/mL

## C[C@@H]1[C@H](O)[C@@H](C)/C=C/C=C/C=C/C=C/C=C/C=C/C=C/[C@H](O[C@@H]2O[C@H](C)[C@@H](O)[C@H](N)[C@@H]2O)C[C@@H]2O[C@](O)(C[C@@H](O)C[C@@H](O)[C@H](O)CC[C@@H](O)C[C@@H](O)CC(=O)O[C@H]1C)C[C@H](O)[C@H]2C(=O)O [AMP, Amphotericin B]
[1]; C. albicans ATCC 90028
  minimum inhibitory concentration (MIC): 0.13 µg/mL (≈ 0.141 µM)
[13]; C. albicans MYA-574
  minimum inhibitory concentration (MIC): 0.13 µg/mL (≈ 0.141 µM)
[2]; C. auris CDC #0381
  minimum inhibitory concentration (MIC): 0.13 µg/mL (≈ 0.141 µM)
[3]; C. auris CDC #0383
  minimum inhibitory concentration (MIC): 0.38 µg/mL (≈ 0.411 µM)
[4]; C. auris CDC #0384
  minimum inhibitory concentration (MIC): 0.5 µg/mL (≈ 0.541 µM)
[5]; C. auris CDC #0385
  minimum inhibitory concentration (MIC): 0.5 µg/mL (≈ 0.541 µM)
[6]; C. auris CDC #0387
  minimum inhibitory concentration (MIC): 0.75 µg/mL (≈ 0.812 µM)
[7]; C. auris CDC #0389
  minimum inhibitory concentration (MIC): 4 µg/mL (≈ 4.33 µM)
[8]; C. auris CDC #0390
  minimum inhibitory concentration (MIC): 4 µg/mL (≈ 4.33 µM)
[14]
  minimum inhibitory concentration (MIC): 0.13 µg/mL (≈ 0.141 µM)
[9]; C. glabrata CDC #0315
  minimum inhibitory concentration (MIC): 0.38 µg/mL (≈ 0.411 µM)
[10]; C. glabrata CDC #0318
  minimum inhibitory concentration (MIC): 0.19 µg/mL (≈ 0.206 µM)
[11]; C. glabrata CDC #0321
  minimum inhibitory concentration (MIC): 0.09 µg/mL (≈ 0.0974 µM)
[12]; C. glabrata CDC #0325
  minimum inhibitory concentration (MIC): 0.25 µg/mL (≈ 0.271 µM)
